Experiment: Compatibility study of drug at 40% w/w in solvent blends
Assay type: physicochemical
Conditions: two week samples at accelerated conditions versus initial samples
Experimental: The solubility and compatibility of lidocaine and lidocaine HCl in solvents typically used in topical pharmaceutical products was assessed in order to direct the formulation development efforts.
Initially, the solubility of lidocaine and lidocaine hydrochloride was evaluated in single solvents with varying lipophilicity. […] Based on the single solvent data, a compatibility study was initiated to evaluate the chemical stability of the drug at a concentration of 40% w/w in a variety of solvent blends that would form the base of potential prototype gel or cream formulations.

CCN(CC)CC(=O)Nc1c(C)cccc1C [lidocaine]
chemical compatibility (potency) in solvent blends: absence of a drop in potency
